Results taken from BigSolDB 2.1.

c1nc[nH]n1
Conditions | solubility (mole fraction)
in ethanol, 283.18 K | 0.131
in ethanol, 288.25 K | 0.147
in ethanol, 293.21 K | 0.164
in ethanol, 298.18 K | 0.184
in ethanol, 303.15 K | 0.205
in ethanol, 308.14 K | 0.228
in ethanol, 313.21 K | 0.253
in ethanol, 318.23 K | 0.28
in ethanol, 323.22 K | 0.308
in ethanol, 328.27 K | 0.339
in ethanol, 333.28 K | 0.371
in ethyl acetate, 283.21 K | 0.0268
in ethyl acetate, 288.29 K | 0.032
in ethyl acetate, 293.21 K | 0.0365
in ethyl acetate, 298.19 K | 0.041
in ethyl acetate, 303.18 K | 0.0457
in ethyl acetate, 308.27 K | 0.0513
in ethyl acetate, 313.2 K | 0.0578
in ethyl acetate, 318.21 K | 0.066
in ethyl acetate, 323.16 K | 0.0759
in ethyl acetate, 328.17 K | 0.0884
in ethyl acetate, 333.27 K | 0.104
in ethyl formate, 283.21 K | 0.0208
in ethyl formate, 288.23 K | 0.0246
in ethyl formate, 293.29 K | 0.0286
in ethyl formate, 298.24 K | 0.0331
in ethyl formate, 303.26 K | 0.0384
in ethyl formate, 308.17 K | 0.0446
in ethyl formate, 313.24 K | 0.0524
in ethyl formate, 318.27 K | 0.0617
in ethyl formate, 323.31 K | 0.073
in isopropanol, 283.17 K | 0.129
in isopropanol, 288.21 K | 0.144
in isopropanol, 293.16 K | 0.159
in isopropanol, 298.23 K | 0.176
in isopropanol, 303.27 K | 0.193
in isopropanol, 308.19 K | 0.211
in isopropanol, 313.24 K | 0.232
in isopropanol, 318.22 K | 0.254
in isopropanol, 323.27 K | 0.278
in isopropanol, 328.2 K | 0.304
in isopropanol, 333.19 K | 0.332
in isopropanol, 338.18 K | 0.363
in isopropanol, 343.26 K | 0.397
in methyl acetate, 283.27 K | 0.0968
in methyl acetate, 288.21 K | 0.106
in methyl acetate, 293.19 K | 0.117
in methyl acetate, 298.21 K | 0.128
in methyl acetate, 303.2 K | 0.141
in methyl acetate, 308.29 K | 0.155
in methyl acetate, 313.18 K | 0.171
in methyl acetate, 318.16 K | 0.189
in methyl acetate, 323.24 K | 0.21
in n-butyl acetate, 283.2 K | 0.0141
in n-butyl acetate, 288.23 K | 0.0166
in n-butyl acetate, 293.26 K | 0.0202
in n-butyl acetate, 298.22 K | 0.024
in n-butyl acetate, 303.24 K | 0.0279
in n-butyl acetate, 308.17 K | 0.032
in n-butyl acetate, 313.28 K | 0.037
in n-butyl acetate, 318.21 K | 0.0428
in n-butyl acetate, 323.16 K | 0.0498
in n-butyl acetate, 328.24 K | 0.0586
in n-butyl acetate, 333.19 K | 0.0688
in n-butyl acetate, 338.18 K | 0.0809
in n-butyl acetate, 343.23 K | 0.0955
in n-butyl acetate, 348.18 K | 0.113
in n-butyl acetate, 353.19 K | 0.136
in n-butyl acetate, 358.18 K | 0.167
in n-butyl acetate, 363.26 K | 0.211
in n-propanol, 283.17 K | 0.12
in n-propanol, 288.18 K | 0.135
in n-propanol, 293.27 K | 0.15
in n-propanol, 298.19 K | 0.168
in n-propanol, 303.21 K | 0.187
in n-propanol, 308.23 K | 0.208
in n-propanol, 313.27 K | 0.231
in n-propanol, 318.2 K | 0.256
in n-propanol, 323.22 K | 0.283
in n-propanol, 328.28 K | 0.313
in n-propanol, 333.18 K | 0.344
in n-propanol, 338.23 K | 0.378
in n-propanol, 343.29 K | 0.415
in propylene glycol, 283.16 K | 0.174
in propylene glycol, 288.27 K | 0.212
in propylene glycol, 293.26 K | 0.249
in propylene glycol, 298.16 K | 0.284
in propylene glycol, 303.19 K | 0.319
in propylene glycol, 308.18 K | 0.353
in propylene glycol, 313.2 K | 0.386
in propylene glycol, 318.28 K | 0.419
in propylene glycol, 323.21 K | 0.451
in propylene glycol, 328.22 K | 0.483
in propylene glycol, 333.23 K | 0.514
in propylene glycol, 338.29 K | 0.545
in propylene glycol, 343.21 K | 0.574
in propylene glycol, 348.23 K | 0.604
in propylene glycol, 353.24 K | 0.633
